In PMC9490041, “Determinants of affinity, specificity, and phase separation in a supramodule from Post-synaptic density protein 95” (iScience, 2022):

Columns and labels:
[1] = molecular target: PSG G322A G335A (PSD-95); test: FP saturation binding of FITC-15 AA CRIPT probe; details: read-out: Kd probe, 5 nM FITC-15 AA CRIPT, room temperature
[2] = molecular target: PSG (PSD-95); test: FP saturation binding of FITC-15 AA CRIPT probe; details: read-out: Kd probe, 5 nM FITC-15 AA CRIPT, room temperature, PSG WT

## CC(C)C[C@H](NC(=O)[C@@H](NC(=O)[C@H](CCCCN)NC(=O)[C@H](CCCCN)NC(=O)[C@H](Cc1ccc(O)cc1)NC(=S)Nc1ccc2c(c1)C(=O)OC21c2ccc(O)cc2Oc2cc(O)ccc21)C(C)C)C(=O)N[C@@H](CC(=O)O)C(=O)N[C@H](C(=O)N[C@@H](CCCCN)C(=O)N[C@@H](CC(N)=O)C(=O)N[C@@H](Cc1ccc(O)cc1)C(=O)N[C@@H](CCCCN)C(=O)N[C@@H](CCC(N)=O)C(=O)N[C@H](C(=O)N[C@@H](CO)C(=O)N[C@H](C(=O)O)C(C)C)[C@@H](C)O)[C@@H](C)O [FITC-15 AA CRIPT]
[1]
  Kd: 160 ± 20 nM
[2]
  Kd: 2200 ± 220 nM
